ChEMBL document CHEMBL3882736, “Modulation microtubules diseases; antiproliferative agents; antiinflamamtory agents” (2011)

What was measured:
[1] = Cytotoxicity against human PC3 cells assessed as growth inhibition at 20 uM after 40 hrs by MTT assay relative to control; format: functional; settings: PC-3, 40 h, read-out: GI
Method in brief: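 Growth inhibition was measured against control in human tumour cells taken in late log phase, each in its own medium with 10% FBS. Cells (90 µL per well, 1.1× final, 50000 to 200,000 cell/mL) were added to 10 µL of compound at 10× final in 96-well plates and incubated 40 hr at 37° C., 5% CO2. Readout used MTT for 6 hours, overnight lysis with SDS/HCl and absorbance at 590 nm.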

Tubulin (Homo sapiens) = Tubulin (Homo sapiens) (UniProt P68371+Q9H4B7+P0DPH7+P68366+Q13509+Q71U36+P04350+Q3ZCM7+P07437+P68363+Q9BQE3+Q6PEY2+Q13885+Q9BVA1+Q9BUF5); experiment: Inhibition of tubulin (unknown origin) polymerization at 50 uM by turbidometric method relative to control; format: protein-complex assay
Method in brief: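 Compound was incubated at 0° C. with microtubule protein whose origin is not stated. In cuvettes, 1 mM GTP was added and the temperature raised to 37° C. to start polymerisation, and a thermostatically controlled spectrophotometer followed absorbance at 340 nm over time. The values give inhibition of polymerisation as percent relative to control.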

Row | Compound | inhibition (Tubulin (Homo sapiens)) | inhibition of growth at 20 µM [1]
1 | CCCC(Nc1cncc(-c2ccc(NC(=O)NCC)c(C)c2)n1)c1cnccc1C (configuration not stated) | > 50% | > 50%
2 | CCC[C@H](Nc1ccnc(-c2ccc(NC(=O)NCC)c(OC)c2)n1)c1cccnc1 | > 50% | > 50%
3 | CCCC(Nc1cncc(-c2ccc(OCCCCN3CCOCC3)c(OC)c2)n1)c1ccccc1 (configuration not stated) |  | < 50%
4 | CCCC(Nc1cncc(-c2ccc(NC(=O)C3CCNCC3)c(OC)c2)n1)c1cccnc1 (configuration not stated) |  | < 50%
5 | CCCC(Nc1cncc(-c2ccc(OCCCCN3CCN(C)CC3)c(OC)c2)n1)c1ccccc1 (configuration not stated) | > 50% | > 50%
6 | CCCC(Nc1cncc(-c2ccc(OCCCN3CCCC3)c(OC)c2)n1)c1cccnc1 (configuration not stated) |  | < 50%
7 | COc1cc(-c2cncc(N[C@@H](C)c3ccccc3)n2)ccc1O | > 50% | 
8 | CCCC(Nc1cncc(-c2ccc(NC(=O)c3cccnc3)c(OC)c2)n1)c1cccnc1 (configuration not stated) |  | < 50%
9 | CC[C@H](Nc1nc(-c2ccc(O)c(OC)c2)ncc1C)c1cccnc1 | > 50% | > 50%
10 | CCCC(Nc1cncc(-c2ccc(CNC(=O)C3CCC(=O)N3)cc2)n1)c1ccccc1 (configuration not stated) |  | < 50%
11 | CCCC(Nc1cncc(-c2ccc(CN3CCCCC3)cc2)n1)c1ccccc1 (configuration not stated) |  | < 50%
12 | CCCC(Nc1cncc(-c2ccc(NC(=O)NCC)c(C)c2)n1)c1ccccn1 (configuration not stated) | > 50% | > 50%
13 | CCCC(Nc1cncc(-c2ccc(CN3CCOCC3)cc2)n1)c1ccccc1 (configuration not stated) |  | < 50%
14 | CCCC(Nc1cncc(-c2ccc(NC(=O)NCCCN3CCOCC3)c(OC)c2)n1)c1cccnc1 (configuration not stated) | > 50% | > 50%
15 | CCC[C@H](Nc1cncc(-c2ccc(NC(=O)CN(C)C)c(OC)c2)n1)c1cccnc1 |  | > 50%
16 | CCCC(Nc1cc(-c2ccc(O)c(OC)c2)ncn1)c1cccnc1 (configuration not stated) | > 50% | > 50%
17 | CCCC(Nc1cncc(-c2ccc(C(=O)NCCN(C)C)cc2)n1)c1ccccc1 (configuration not stated) |  | < 50%
18 | CCCC(Nc1cncc(-c2ccc(OCCCO)c(OC)c2)n1)c1ccccc1 (configuration not stated) | > 50% | > 50%
19 | CCCC(Nc1nc(-c2ccc(NC(=O)NCC)c(OC)c2)cnc1C)c1ccccc1 (configuration not stated) | > 50% | > 50%
20 | CCCC(Nc1cncc(-c2ccc(NC(=O)N3CCN(C)CC3)c(OC)c2)n1)c1cccnc1 (configuration not stated) |  | > 50%
21 | CCCC(Nc1cncc(-c2ccc(CNC(=O)C3CCCNC3)cc2)n1)c1ccccc1 (configuration not stated) | > 50% | > 50%
22 | CCC[C@H](Nc1cncc(-c2ccc(NC(=O)NCC)c(OC)c2)n1)c1ccccc1 | > 50% | > 50%
23 | CCCC(Nc1cncc(-c2ccc(C(=O)NCCCN3CCOCC3)cc2)n1)c1ccccc1 (configuration not stated) |  | < 50%
24 | CCCC(Nc1nnc(C)c(-c2cc(OC)c(OC)c(OC)c2)n1)c1ccccc1 (configuration not stated) |  | < 50%
25 | CCCC(Nc1cncc(-c2ccc(OCCCN3CCN(C)CC3)c(OC)c2)n1)c1ccccc1 (configuration not stated) | > 50% | > 50%
26 | CCCC(Nc1cncc(-c2ccc(C(=O)N3CCN(C)CC3)cc2)n1)c1ccccc1 (configuration not stated) |  | < 50%

Row | Compound | inhibition (Tubulin (Homo sapiens)) | inhibition of growth at 20 µM [1]
27 | CCCC(Nc1cncc(-c2ccc(OCCCN3CCOCC3)c(OC)c2)n1)c1ccccc1 (configuration not stated) |  | > 50%
28 | CCCC(Nc1cncc(-c2ccc(CN3CCCC3)cc2)n1)c1ccccc1 (configuration not stated) | > 50% | > 50%
29 | CCCC(Nc1cncc(-c2ccc(OCCCN3CCOCC3)c(OC)c2)n1)c1cccnc1 (configuration not stated) |  | < 50%
30 | CCCC(Nc1cncc(-c2ccc(OCCN(CC)CC)c(OC)c2)n1)c1cncc(C)c1 (configuration not stated) |  | < 50%
31 | CCCC(Nc1cncc(-c2ccc(C(=O)NCCCCCN)c(C)c2)n1)c1cccnc1 (configuration not stated) |  | < 50%
32 | CCCC(Nc1cncc(-c2ccc(CO)c(OC)c2)n1)c1cccnc1 (configuration not stated) |  | < 50%
33 | CCCC(Nc1cncc(-c2ccc(CN3CCC[C@H]3CO)cc2)n1)c1ccccc1 (some centres not stated) |  | < 50%
34 | COc1cc(-c2ncc(C)c(NC(CCO)c3ccccc3)n2)ccc1O (configuration not stated) |  | < 50%
35 | COc1cc(-c2nc(N[C@H](C)c3ccccc3)nnc2C)ccc1O |  | < 50%
36 | CCCC(Nc1cncc(-c2ccc(NC(=O)NCC)c(CC)c2)n1)c1cccnc1 (configuration not stated) | > 50% | > 50%
37 | CCCC(Nc1cncc(-c2ccc(C(=O)NCCCN(CC)CC)cc2)n1)c1ccccc1 (configuration not stated) |  | < 50%
38 | CCCC(Nc1cncc(-c2ccc(CO)cc2)n1)c1ccccc1 (configuration not stated) | > 50% | > 50%
39 | CCC[C@H](Nc1cncc(-c2ccc(NC(=O)NCC)c(OC)c2)n1)c1ccccn1 | > 50% | > 50%
40 | CCCC(Nc1cncc(-c2ccc(NC(=O)NCC)c(C)c2)n1)c1cccnc1 (configuration not stated) | > 50% | > 50%
41 | CCCC(Nc1cncc(-c2ccc(CN(C)C)cc2)n1)c1ccccc1 (configuration not stated) |  | < 50%
42 | CCCC(Nc1cncc(-c2ccc(OCCCN3CCN(C)CC3)c(OC)c2)n1)c1cccnc1 (configuration not stated) |  | < 50%
43 | CCCC(Nc1cncc(-c2cc(OC)c(OC)c(OC)c2)c1)c1ccccc1 (configuration not stated) |  | > 50%
44 | COc1cc(-c2cncc(NC(C)c3cccc(NC(=O)c4cccnc4)c3)n2)ccc1O (configuration not stated) | > 50% | 
45 | CCCC(Nc1cncc(-c2ccc(CN3CCC(O)CC3)cc2)n1)c1ccccc1 (configuration not stated) |  | < 50%
46 | COc1cc(-c2nc(N[C@H](C)c3ccccc3)nnc2C)cc(OC)c1OC |  | < 50%
47 | CCCC(Nc1cncc(-c2ccc(NC(=O)NCC)cc2)n1)c1cccnc1 (configuration not stated) |  | < 50%
48 | CCCC(Nc1cncc(-c2ccc(C(=O)N3CCOCC3)cc2)n1)c1ccccc1 (configuration not stated) |  | < 50%
49 | CCCC(Nc1cncc(-c2ccc(CN3CCN(C)CC3)cc2)n1)c1ccccc1 (configuration not stated) |  | < 50%
50 | CCCC(Nc1cncc(-c2ccc(NC(=O)NCCCN(CC)CC)c(OC)c2)n1)c1cccnc1 (configuration not stated) |  | < 50%
51 | CCNC(=O)Nc1ccc(-c2cncc(NC(C)c3cccnc3)n2)cc1OC (configuration not stated) |  | < 50%

Second part, led by results:

Row | inhibition (Tubulin (Homo sapiens)) | Compound | inhibition of growth at 20 µM [1]
52 | > 50% | CCCC(Nc1cncc(-c2ccc(OCCCCN3CCCC3)c(OC)c2)n1)c1ccccc1 (configuration not stated) | > 50%
53 | > 50% | CCCC(Nc1cncc(-c2ccc(CN)c(OC)c2)n1)c1cccnc1 (configuration not stated) | > 50%
54 | > 50% | CCCC(Nc1cncc(-c2ccc(NC(=O)NCC)c(OC)c2)n1)c1cccnc1 (configuration not stated) | > 50%
55 | > 50% | CCCC(Nc1cncc(-c2ccc(NC(=O)NCCN(C)C)c(OC)c2)n1)c1cccnc1 (configuration not stated) | > 50%
56 | > 50% | COc1cc(-c2nccc(N[C@@H](C)c3ccccc3)n2)ccc1O | > 50%
57 | > 50% | CCCC(Nc1cncc(-c2ccc(OCCN(CC)CC)c(OC)c2)n1)c1ccccc1 (configuration not stated) | > 50%
58 | > 50% | CCCC(Nc1cncc(-c2ccc(NC(=O)NCC)c(OC)c2)n1)c1cccnc1C (configuration not stated) | > 50%
59 | > 50% | COc1cc(-c2cncc(N[C@@H](C)c3ccccc3)c2)ccc1O | > 50%
60 | > 50% | CCCC(Nc1cncc(-c2ccc(CN)cc2)n1)c1ccccc1 (configuration not stated) | > 50%
61 | > 50% | CCCC(Nc1cncc(-c2ccc(NC(=O)NCC)c(OC)c2)n1)c1cnccc1C (configuration not stated) | > 50%
62 | > 50% | CCNC(=O)Nc1ccc(-c2cncc(NC(CCOC)c3ccccc3)n2)cc1OC (configuration not stated) | > 50%
63 | > 50% | CCC[C@H](Nc1nc(-c2ccc(O)c(OC)c2)ncc1C)c1cccnc1 | > 50%
64 | > 50% | CCC[C@H](Nc1cc(-c2ccc(NC(=O)NCC)c(OC)c2)ncn1)c1cccnc1 | > 50%
65 | > 50% | COc1cc(-c2cncc(NC(C)c3ccc(-c4cccnc4)cc3)n2)ccc1O (configuration not stated) | 
66 | > 50% | CCNC(=O)Nc1ccc(-c2cncc(N[C@@H](CC)c3cccnc3)n2)cc1OC | > 50%
67 | > 50% | CCCC(Nc1cncc(-c2ccc(OCCCN3CCCC3)c(OC)c2)n1)c1ccccc1 (configuration not stated) | > 50%
68 | > 50% | CCC[C@H](Nc1cncc(-c2ccc(NC(=O)NCC)c(C)c2)n1)c1cccnc1 | > 50%
69 | > 50% | COc1cc(-c2cncc(NC(C)c3cccc(NC(=O)[C@H]4CCCN4)c3)n2)ccc1O (some centres not stated) | 
70 | > 50% | CCCC(Nc1cncc(-c2ccc(CNC(=O)C3CCNCC3)cc2)n1)c1ccccc1 (configuration not stated) | > 50%
71 | > 50% | CCCC(Nc1cncc(-c2ccc(O)c(OC)c2)c1)c1ccccc1 (configuration not stated) | > 50%
72 | > 50% | CCCC(Nc1cncc(-c2ccc(NC(=O)NCC)c(OC)c2)n1)c1cncc(C)c1 (configuration not stated) | > 50%
73 | > 50% | CCCC(Nc1cncc(-c2ccc(OCCCCN)c(OC)c2)n1)c1ccccc1 (configuration not stated) | > 50%
74 | > 50% | CCCC(Nc1cncc(-c2ccc(NC(=O)NCC)c(OC)c2)n1)c1cccc(F)c1 (configuration not stated) | > 50%
75 | > 50% | CC[C@H](Nc1cncc(-c2ccc(O)c(OC)c2)n1)c1ccccc1 | 
76 | > 50% | CCNC(=O)Nc1ccc(-c2ncc(C)c(N[C@@H](CC)c3cccnc3)n2)cc1OC | > 50%
77 | > 50% | CCCC(Nc1cncc(-c2ccc(NC(=O)NCC)c(OC)c2)n1)c1ccccn1 (configuration not stated) | > 50%
